Counter-ions that a name gives are not always drawn.
Columns and labels:
Assay in all cases: single-channel electrophysiology, planar lipid bilayer, ion current blockage events
Type in all cases: binding
[1] = target: T1, OmpF (OmpF-WT) (Escherichia coli, UniProt P02931); details: purified OmpF without LPS; 250 uM compound; 200 mM KCl, 20 mM MES, pH 6.0; negative voltage (-50 mV stated for the OMV values)
T1 construct: purified wild-type OmpF, mature porin, homotrimer, reconstituted in planar lipid bilayer; OMV form overexpressed in E. coli BL21(DE3)omp8
T1 sequence (P02931 23-362): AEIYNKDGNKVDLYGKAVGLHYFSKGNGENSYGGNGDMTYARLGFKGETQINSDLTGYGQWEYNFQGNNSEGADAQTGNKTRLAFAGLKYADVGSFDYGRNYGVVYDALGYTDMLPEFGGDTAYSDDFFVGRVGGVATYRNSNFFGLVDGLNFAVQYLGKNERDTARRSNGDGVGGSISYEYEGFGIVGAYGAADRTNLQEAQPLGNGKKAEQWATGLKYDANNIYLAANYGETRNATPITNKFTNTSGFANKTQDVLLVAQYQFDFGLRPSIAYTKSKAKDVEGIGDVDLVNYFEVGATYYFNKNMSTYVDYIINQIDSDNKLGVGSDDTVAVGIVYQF

[2] = target: T1, OmpF (OmpF-WT); details: purified OmpF without LPS; 250 uM compound; 200 mM KCl, 20 mM MES, pH 6.0; negative voltage (-50 mV stated for the OMV values); remark: listed apart in the source
Text: single-channel electrophysiology, planar lipid bilayer, ion current blockage events on OmpF (OmpF-WT) | Higher event rates are found using purified OmpF.

[3] = target: T1, OmpF (OmpF-WT); details: purified OmpF; 10 uM compound; 1 M KCl, 20 mM MES, pH 6

Structure (SMILES)	k off [1] [s⁻¹]	k on [2]	event rate [3]
CCN1CCN(c2cc3c(cc2F)c(=O)c(C(=O)O)cn3C2CC2)CC1 [Enrofloxacin]	500	72,000 s^-1 M^-1	
NC[C@H]1O[C@H](O[C@H]2[C@H](O)[C@@H](O[C@H]3O[C@H](CO)[C@@H](O)[C@H](N)[C@H]3O)[C@H](N)C[C@@H]2N)[C@H](O)[C@@H](O)[C@@H]1O [Kanamycin sulfate]			Kanamycin sulfate permeation for both batches of preparation

— PMC7317717, “Electrophysiological Characterization of Transport Across Outer‐Membrane Channels from Gram‐Negative Bacteria in Presence of Lipopolysaccharides” (Angewandte Chemie (International Ed. in English), 2020)
